In patent publication US5145783A, “Glyphosate-tolerant 5-endolpyruvyl-3-phosphoshikimate synthase” (Monsanto Company, priority 1990, dated 1992):
Entries after “also recorded” stand apart in the source; their conditions may differ.

Experiments:
[1] = target: T1, glyphosate-tolerant EPSP synthase (gly(101)-ala) of tomato (Solanum lycopersicum, UniProt P10748, G177A); assay: EPSP synthase activity assay, extracts of E. coli SR481 harboring pMON9729; format: biochemical
T1 construct: ATG translational initiation codon at the site predicted to be the start of the mature enzyme for in vitro expression in E. Coli; initiator methionine (ATG in an engineered NcoI site) (N); made in house; host or cells: E. coli SR481 (aroA mutant) harboring pMON9729, desalted cell extract
Procedure: E. coli SR481 cells harboring pMON9719 or pMON9729 were grown under conditions which induce the expression of the RecA promoter. The cells were lysed and the extracts were assayed for EPSP synthase activity.
Specifically, the bacterial cell paste was washed twice with 0.9% saline, suspended in buffer (100 mM Tris-HCl, 5 mM dithiothreitol, 1 mM EDTA, 10% glycerol and 1 mM benzamidine HCl) passed twice through the French Pressure Cell at 1000 psi. The cell abstract was separated from the cells by centrifuging at 15,000×gravity for 10 mins. at 5° C. It was desalted using Sephadex G-50 (Pharmacia, Piscataway, N.J.). The desalted extract was assayed for EPSP synthase activity as follows:
To an assay mix (40 μl) containing shikimate-3-phosphate (2 mM), ^14 C-phosphoenolpyruvate (1 mM, 1.2 mCi/mmol), ammonium molybdate (0.1 mM), potassium fluoride (5 mM), in 50 mM HEPES-KOH, pH 7, was added 10 μl of the extract and incubated at 25° C. for 2 mins. […] The radioactivity of the eluent was monitored using a Radiometric Flo-One Beta Instrument. […] The EPSP synthase activity was determined by measurement of the conversion of ^14 C-PEP to ^14 […], both of which are resolved under the above conditions of chromatography. The protein content of the extract was determined by the method of Bradford (Biorad Labs, Calif.). […]

[2] = system: control petunia leaf disks (pMON505); assay: Callus growth of petunia leaf disks on glyphosate media, control vector pMON505; format: cell-based
Procedure: (§1) Leaf disks with diameters of 6 mm (1/4 inch) were taken from surface-sterilized petunia leaves. They were cultivated on MS104 agar medium for 2 days to promote partial cell wall formation at the wound surfaces. They were then submerged in a culture of A. tumefaciens cells containing both pMON546 and GV3111-SE which had been grown overnight in Luria broth at 28° C., and shaken gently. The cells were removed from the bacterial suspension, blotted dry, and incubated upside down on filter paper placed over "nurse" cultures of tobacco cells, as described in Horsch (1980). After 2 or 3 days, the disks were transferred to petri dishes containing MS media with 500 μg/ml carbenicillin and 0., 0.1, 0.25, or 0.5 mM glyphosate (sodium salt), with no nurse cultures.
(§2) Control tissue was created using A. tumefaciens cells containing the helper plasmid pGV3111-SE and a different plant transformation vector, pMON505, which contained a T-DNA region with a NOS/NPTII/NOS kanamycin resistance gene and a NOS selectable marker gene identical to pMON546, but without the CaMV35S/EPSP synthase gene.
(§3) Within 10 days after transfer to the media containing glyphosate, actively growing callus tissue appeared on the periphery of all disks on the control plate containing no glyphosate. […] This confirms that the CaMV35S/EPSP synthase gene conferred glyphosate resistance upon the transformed cells.

[3] = system: petunia leaf disks transformed with CaMV35S/EPSP synthase gene (pMON546); assay: Callus growth of petunia leaf disks on glyphosate media, transformed with pMON546; format: cell-based
Procedure: as §1, §2, §3

[4] = system: wild-type (non-transformed) petunia plants; assay: Plant response to glyphosate spraying, control plants; format: in vivo; details: 0.8 #/acre acid equivalent, isopropylamine salt sprayed
Procedure: Four individual representative transgenic seedlings were selected, grown and tested in the testing procedure described below, along with four individual non-transformed (wild-type) petunia seedlings.
The plants were grown in a growth medium in a growth chamber at 26° C. with 12 hours of light per day. The plants were fertilized weekly with a soluble fertilizer and watered as needed. The plants were sprayed at a uniform and reproducible delivery rate of herbicide by use of an automated track sprayer. The glyphosate solution used was measured as pounds of glyphosate acid equivalents per acre, mixed as the glyphosate isopropylamine salt, with an ionic surfactant.
Four individual wild-type (non-transformed) petunia plants were selected for use as control plants. Four individual transformed plants containing the pMON546 vector were selected by kanamycin resistance as described in Horsch et al. (1985).
The control plants and the transformed plants were sprayed with the isopropylamine salt of glyphosate at the application level listed in Table 2 below; the experimental results obtained are also summarized in Table 2.

[5] = system: tobacco plants transformed with glyphosate-tolerant petunia EPSP synthase gene (pMON567); assay: Relative effect of glyphosate spray on transformed tobacco, glyphosate-tolerant gene; format: in vivo, Nicotiana tabacam CV H425; design: key: 0 = total kill, 10 = normal unsprayed plant; details: GT
Text: A culture of A. tumefaciens cells containing pMON567/pGV3111-SE was contacted with leaf disks taken from tobacco plants (Nicotiana tabacam CV H425) as described by Horsch (1985). The Agrobacterium cells inserted the mutant EPSP synthase gene into the chromosomes of the plant cells. Plant cells resistant to kanamycin were selected and regenerated into differentiated plants by the procedure of Horsch (1985).
Progeny of these plants were propagated and grown to a rosette diameter of about 10 cm corresponding to a plant age of about four weeks. […] […] The effect was translated to a numerical scale of 0-10 in which 0 represents total kill and 10 is the normal, unsprayed plant. […] The values represent the best transformant for both wild-type EPSP synthase and glyphosate-tolerant EPSP synthase genes.

[6] = system: Brassica napus calli transformed with pMON600; assay: Growth of pMON600-transformed calli on glyphosate; format: cell-based; details: 0.5 mM glyphosate, three gentamicin resistant calli
wild type callus = assay: Growth of wild type callus on glyphosate; format: cell-based, Brassica napus; details: 0.5 mM glyphosate

T1 sequence (P10748 77-520 G177A): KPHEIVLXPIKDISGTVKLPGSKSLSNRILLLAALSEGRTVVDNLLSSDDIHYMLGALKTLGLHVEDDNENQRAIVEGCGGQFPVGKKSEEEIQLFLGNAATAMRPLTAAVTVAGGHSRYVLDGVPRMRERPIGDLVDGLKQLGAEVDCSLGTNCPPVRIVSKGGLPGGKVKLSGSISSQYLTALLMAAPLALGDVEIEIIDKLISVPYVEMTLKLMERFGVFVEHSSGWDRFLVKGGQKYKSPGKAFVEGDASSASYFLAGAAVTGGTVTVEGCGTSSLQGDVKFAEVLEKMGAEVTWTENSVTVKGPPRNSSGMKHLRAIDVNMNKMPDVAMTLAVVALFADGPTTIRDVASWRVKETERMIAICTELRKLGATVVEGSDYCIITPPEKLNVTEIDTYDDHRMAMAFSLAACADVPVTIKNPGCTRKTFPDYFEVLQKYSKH

O=C(O)CNCP(=O)(O)O [glyphosate, N-phosphonomethylglycine]
IC50 [1]: 32 mM
callus growth ([2]; 0.25 mM glyphosate): very little growth of callus
callus growth ([2]; 0.5 mM glyphosate): no callus growth
callus growth, control disks versus transformed tissue ([3]; 0.1 mM glyphosate, within 10 days after transfer): little detectable difference
callus growth ([3]; 0.25 mM glyphosate, transformed tissue): substantial growth
callus growth ([3]; 0.5 mM glyphosate, transformed disks): a significant number of calli grew
Visual Appearance [4]: completely dead; also recorded: killed
Relative effect of glyphosate (0 total kill, 10 no effect) ([5]; 0.4 Pounds/Acre, Day 7, best transformant): 8.0
Relative effect of glyphosate (0 total kill, 10 no effect) ([5]; 0.4 Pounds/Acre, Day 14, best transformant): 8.0
Relative effect of glyphosate (0 total kill, 10 no effect) ([5]; 0.4 Pounds/Acre, Day 28, best transformant): 9.0
Relative effect of glyphosate (0 total kill, 10 no effect) ([5]; 2.0 Pounds/Acre, Day 7, best transformant): 8.0
Relative effect of glyphosate (0 total kill, 10 no effect) ([5]; 2.0 Pounds/Acre, Day 14, best transformant): 8.3
Relative effect of glyphosate (0 total kill, 10 no effect) ([5]; 2.0 Pounds/Acre, Day 28, best transformant): 7.0
Relative effect of glyphosate (0 total kill, 10 no effect) ([5]; 3.6 Pounds/Acre, Day 7, best transformant): 5.0
Relative effect of glyphosate (0 total kill, 10 no effect) ([5]; 3.6 Pounds/Acre, Day 14, best transformant): 7.4
Relative effect of glyphosate (0 total kill, 10 no effect) ([5]; 3.6 Pounds/Acre, Day 28, best transformant): 7.0
callus growth on glyphosate [6]: capable of growth
effect on callus (wild type callus): kills
